Results from ChEMBL document CHEMBL4402543, “Bioisosteric Development of Multitarget Nonsteroidal Anti-Inflammatory Drug-Carbonic Anhydrases Inhibitor Hybrids for the Management of Rheumatoid Arthritis” (J Med Chem, 2020).
The source made the active and inactive calls.

Molecular target: T1, Prostaglandin G/H synthase 2 (Mus musculus) (UniProt Q05769)
T1 sequence (whole entry): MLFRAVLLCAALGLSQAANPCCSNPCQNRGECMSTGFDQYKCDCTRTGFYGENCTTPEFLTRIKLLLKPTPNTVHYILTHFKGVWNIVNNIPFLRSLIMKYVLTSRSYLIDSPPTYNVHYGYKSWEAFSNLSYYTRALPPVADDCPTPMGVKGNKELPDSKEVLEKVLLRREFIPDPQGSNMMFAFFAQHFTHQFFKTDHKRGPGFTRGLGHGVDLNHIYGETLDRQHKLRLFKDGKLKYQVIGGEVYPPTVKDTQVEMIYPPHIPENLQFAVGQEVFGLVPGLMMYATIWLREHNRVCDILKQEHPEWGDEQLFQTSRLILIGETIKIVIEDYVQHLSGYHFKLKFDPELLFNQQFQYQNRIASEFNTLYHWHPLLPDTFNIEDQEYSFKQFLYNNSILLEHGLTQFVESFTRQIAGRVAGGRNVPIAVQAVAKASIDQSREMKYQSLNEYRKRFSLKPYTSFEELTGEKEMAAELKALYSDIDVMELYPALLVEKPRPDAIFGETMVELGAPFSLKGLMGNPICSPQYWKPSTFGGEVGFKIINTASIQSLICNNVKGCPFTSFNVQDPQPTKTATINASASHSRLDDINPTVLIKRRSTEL
Assay: Inhibition of COX2 in mouse RAW264.7 cells assessed as reduction in LPS-induced inflammation by measuring reduction in PGE2 level at 1 uM treated 1 hr after LPS stimulation and measured after 18 hrs by ELISA relative to control
Format: cell-based
Conditions: not given

Compound	inhibition
CC(C)Cc1ccc(C(C)C(=O)NCCOc2ccc3ccc(=O)oc3c2)cc1 (configuration not stated)	Active

Molecular target: Carbonic anhydrase 12 (Homo sapiens) (UniProt O43570)
Sequence (O43570 whole entry): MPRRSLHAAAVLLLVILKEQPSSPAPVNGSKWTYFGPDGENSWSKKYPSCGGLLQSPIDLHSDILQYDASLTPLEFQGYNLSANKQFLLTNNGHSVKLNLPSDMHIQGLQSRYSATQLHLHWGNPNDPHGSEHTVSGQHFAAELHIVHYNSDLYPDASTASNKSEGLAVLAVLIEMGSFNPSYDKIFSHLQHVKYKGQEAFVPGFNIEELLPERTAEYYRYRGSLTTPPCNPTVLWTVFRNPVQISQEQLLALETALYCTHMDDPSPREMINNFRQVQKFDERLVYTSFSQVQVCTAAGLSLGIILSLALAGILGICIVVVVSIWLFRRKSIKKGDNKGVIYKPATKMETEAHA
Conditions: not given

Compound	Ki [nM]
CC(C)Cc1ccc(C(C)C(=O)OCCOc2ccc3ccc(=O)oc3c2)cc1 (racemic)	5.3
CC(C)Cc1ccc(C(C)C(=O)OCCOc2ccc3oc(=O)ccc3c2)cc1 (racemic)	459

System: not listed separately
Assay: Stability in PBS
Format: physicochemical
Conditions: buffer

Compound	Stability
COc1ccc2cc([C@H](C)C(=O)OCCOc3ccc4ccc(=O)oc4c3)ccc2c1	Stable
CC1=C(CC(=O)OCCOc2ccc3ccc(=O)oc3c2)c2cc(F)ccc2/C1=C\c1ccc([S+](C)[O-])cc1 (configuration not stated)	Stable
O=C(Cc1ccccc1Nc1c(Cl)cccc1Cl)OCCOc1ccc2ccc(=O)oc2c1	Stable
O=C(Cc1ccccc1Nc1c(Cl)cccc1Cl)OCCOc1ccc2oc(=O)ccc2c1	Stable
COc1ccc2c(c1)c(CC(=O)OCCOc1ccc3ccc(=O)oc3c1)c(C)n2C(=O)c1ccc(Cl)cc1	Stable
COc1ccc2c(c1)c(CC(=O)OCCOc1ccc3oc(=O)ccc3c1)c(C)n2C(=O)c1ccc(Cl)cc1	Stable
COc1ccc2cc([C@H](C)C(=O)OCCOc3ccc4oc(=O)ccc4c3)ccc2c1	Stable
CC1=C(CC(=O)OCCOc2ccc3oc(=O)ccc3c2)c2cc(F)ccc2/C1=C\c1ccc([S+](C)[O-])cc1 (configuration not stated)	Stable
CC(C)Cc1ccc(C(C)C(=O)OCCOc2ccc3ccc(=O)oc3c2)cc1 (racemic)	Stable
CC(C)Cc1ccc(C(C)C(=O)OCCOc2ccc3oc(=O)ccc3c2)cc1 (racemic)	Stable
CC(C(=O)OCCOc1ccc2ccc(=O)oc2c1)c1ccc(-c2ccccc2)c(F)c1 (racemic)	Stable
CC(C(=O)OCCOc1ccc2oc(=O)ccc2c1)c1ccc(-c2ccccc2)c(F)c1 (racemic)	Stable

System: Rattus norvegicus
Assay: (§1) Antihyperalgesic activity in Sprague-Dawley rat model of Complete freund's adjuvant-induced arthritis assessed as reduction in difference between weight burdened on contralateral and ipsilateral paw at 30 mg/kg, po starting from day 14 after CFA injection and measured at 15 mins incapacitance test
Format: functional, organism-based
Conditions: not given

Compound	Activity
CC(C(=O)O)c1cccc(C(=O)c2ccccc2)c1 (configuration not stated) [KETOPROFEN]	Active

Molecular target: Carbonic anhydrase 2 (Homo sapiens) (UniProt P00918)
Conditions: not given

Compound	Ki [µM]
CC(C)Cc1ccc(C(C)C(=O)OCCOc2ccc3ccc(=O)oc3c2)cc1 (racemic)	> 10
CC(C)Cc1ccc(C(C)C(=O)OCCOc2ccc3oc(=O)ccc3c2)cc1 (racemic)	> 10

System: Rattus norvegicus
Assay: Antihyperalgesic activity in Sprague-Dawley rat model of Complete freund's adjuvant-induced arthritis assessed as reduction in difference between weight burdened on contralateral and ipsilateral paw at 30 mg/kg, po starting from day 14 after CFA injection and measured at 45 mins incapacitance test
Format: functional, organism-based
Conditions: not given

Compound	Activity
CC(C(=O)O)c1cccc(C(=O)c2ccccc2)c1 (configuration not stated) [KETOPROFEN]	inactive

Molecular target: COX1 (Prostaglandin G/H synthase 1) (Homo sapiens, UniProt P23219)
Sequence (P23219 whole entry): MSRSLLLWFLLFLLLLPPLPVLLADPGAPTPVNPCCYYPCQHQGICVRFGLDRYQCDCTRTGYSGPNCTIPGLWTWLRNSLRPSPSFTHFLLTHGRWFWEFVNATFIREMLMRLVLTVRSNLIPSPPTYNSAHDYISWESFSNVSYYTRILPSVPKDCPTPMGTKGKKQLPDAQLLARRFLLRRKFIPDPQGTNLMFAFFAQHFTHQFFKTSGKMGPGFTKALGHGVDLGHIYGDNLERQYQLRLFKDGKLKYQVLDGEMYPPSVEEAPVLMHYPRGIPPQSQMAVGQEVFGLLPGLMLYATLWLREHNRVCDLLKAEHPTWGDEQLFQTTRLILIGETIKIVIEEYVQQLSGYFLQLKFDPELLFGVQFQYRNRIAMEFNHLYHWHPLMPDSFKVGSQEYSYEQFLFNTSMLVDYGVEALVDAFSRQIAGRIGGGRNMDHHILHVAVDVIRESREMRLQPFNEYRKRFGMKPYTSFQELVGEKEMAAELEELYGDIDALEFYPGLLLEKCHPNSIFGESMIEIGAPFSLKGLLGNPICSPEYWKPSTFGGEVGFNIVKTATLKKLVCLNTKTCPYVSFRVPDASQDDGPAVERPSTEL
Assay: Inhibition of COX1 in human platelet rich plasma in assessed as inhibition of ADP-induced platelet aggregation at 10 uM incubated for 5 mins by turbidimetry based Born's method relative to control
Conditions: not given

Compound	inhibition at 5 min, 10 µM [%]
CC(C)Cc1ccc(C(C)C(=O)NCCOc2ccc3ccc(=O)oc3c2)cc1 (configuration not stated)	5 to 30
CC(C)Cc1ccc(C(C)C(=O)OCCOc2ccc3ccc(=O)oc3c2)cc1 (racemic)	5 to 30
CC(C)Cc1ccc(C(C)C(=O)OCCOc2ccc3oc(=O)ccc3c2)cc1 (racemic)	5 to 30
CC(C(=O)O)c1cccc(C(=O)c2ccccc2)c1 (configuration not stated) [KETOPROFEN]	25

System: Rattus norvegicus
Assay: Antihyperalgesic activity in Sprague-Dawley rat model of Complete freund's adjuvant-induced arthritis assessed as reduction in difference between weight burdened on contralateral and ipsilateral paw at 30 mg/kg, po starting from day 14 after CFA injection and measured at 30 mins incapacitance test
Format: functional, organism-based
Conditions: not given

Compound	Activity
CC(C(=O)O)c1cccc(C(=O)c2ccccc2)c1 (configuration not stated) [KETOPROFEN]	inactive

Molecular target: Carbonic anhydrase 9 (Homo sapiens) (UniProt Q16790)
Conditions: not given

Compound	Ki [nM]
CC(C)Cc1ccc(C(C)C(=O)OCCOc2ccc3ccc(=O)oc3c2)cc1 (racemic)	3.9
CC(C)Cc1ccc(C(C)C(=O)OCCOc2ccc3oc(=O)ccc3c2)cc1 (racemic)	25.3

System: Rattus norvegicus
Assay: as §1, with “15 to 30” for “15”
Format: functional, organism-based
Conditions: not given

Compound	Activity
CC(C(=O)O)c1cccc(C(=O)c2ccccc2)c1 (configuration not stated) [KETOPROFEN]	Active

Molecular target: T1, Prostaglandin G/H synthase 2 (Mus musculus)
Assay: Inhibition of COX2 in mouse RAW264.7 cells assessed as reduction in LPS-induced inflammation by measuring reduction in PGE2 level at 100 uM treated 1 hr after LPS stimulation and measured after 18 hrs by ELISA relative to control
Format: cell-based
Conditions: not given

Compound	inhibition
CC(C)Cc1ccc(C(C)C(=O)NCCOc2ccc3ccc(=O)oc3c2)cc1 (configuration not stated)	Active

Molecular target: Carbonic anhydrase 4 (Homo sapiens) (UniProt P22748)
Sequence (P22748 whole entry): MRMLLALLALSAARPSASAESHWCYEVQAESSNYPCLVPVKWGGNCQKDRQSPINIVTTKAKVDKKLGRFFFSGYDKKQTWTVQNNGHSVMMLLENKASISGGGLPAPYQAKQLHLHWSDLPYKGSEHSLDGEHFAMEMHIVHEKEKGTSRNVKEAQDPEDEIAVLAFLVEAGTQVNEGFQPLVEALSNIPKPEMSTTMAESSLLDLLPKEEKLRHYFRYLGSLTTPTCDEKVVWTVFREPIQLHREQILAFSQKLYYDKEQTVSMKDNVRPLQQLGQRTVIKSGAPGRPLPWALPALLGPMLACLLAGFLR
Conditions: not given

Compound	Ki [nM]
CC(C)Cc1ccc(C(C)C(=O)OCCOc2ccc3ccc(=O)oc3c2)cc1 (racemic)	6.5
CC(C)Cc1ccc(C(C)C(=O)OCCOc2ccc3oc(=O)ccc3c2)cc1 (racemic)	3.6

System: not listed separately
Assay: Half life in Sprague-Dawley rat plasma by LC-MS/MS analysis
Format: ADME, cell-free
Conditions: not given

Compound	half-life [min]
CC(C)Cc1ccc(C(C)C(=O)NCCOc2ccc3ccc(=O)oc3c2)cc1 (configuration not stated)	> 240
COc1ccc2cc([C@H](C)C(=O)OCCOc3ccc4ccc(=O)oc4c3)ccc2c1	< 1
CC1=C(CC(=O)OCCOc2ccc3ccc(=O)oc3c2)c2cc(F)ccc2/C1=C\c1ccc([S+](C)[O-])cc1 (configuration not stated)	16.6
O=C(Cc1ccccc1Nc1c(Cl)cccc1Cl)OCCOc1ccc2ccc(=O)oc2c1	< 1
O=C(Cc1ccccc1Nc1c(Cl)cccc1Cl)OCCOc1ccc2oc(=O)ccc2c1	< 1
COc1ccc2c(c1)c(CC(=O)OCCOc1ccc3ccc(=O)oc3c1)c(C)n2C(=O)c1ccc(Cl)cc1	2
COc1ccc2c(c1)c(CC(=O)OCCOc1ccc3oc(=O)ccc3c1)c(C)n2C(=O)c1ccc(Cl)cc1	2.8
COc1ccc2cc([C@H](C)C(=O)OCCOc3ccc4oc(=O)ccc4c3)ccc2c1	1.1
CC1=C(CC(=O)OCCOc2ccc3oc(=O)ccc3c2)c2cc(F)ccc2/C1=C\c1ccc([S+](C)[O-])cc1 (configuration not stated)	5.5
CC(C)Cc1ccc(C(C)C(=O)OCCOc2ccc3ccc(=O)oc3c2)cc1 (racemic)	3.2
CC(C)Cc1ccc(C(C)C(=O)OCCOc2ccc3oc(=O)ccc3c2)cc1 (racemic)	3.5
CC(C(=O)OCCOc1ccc2ccc(=O)oc2c1)c1ccc(-c2ccccc2)c(F)c1 (racemic)	2.4
CC(C(=O)OCCOc1ccc2oc(=O)ccc2c1)c1ccc(-c2ccccc2)c(F)c1 (racemic)	1.3

Molecular target: Carbonic anhydrase 1 (Homo sapiens) (UniProt P00915)
Sequence (P00915 2-261 limits assumed): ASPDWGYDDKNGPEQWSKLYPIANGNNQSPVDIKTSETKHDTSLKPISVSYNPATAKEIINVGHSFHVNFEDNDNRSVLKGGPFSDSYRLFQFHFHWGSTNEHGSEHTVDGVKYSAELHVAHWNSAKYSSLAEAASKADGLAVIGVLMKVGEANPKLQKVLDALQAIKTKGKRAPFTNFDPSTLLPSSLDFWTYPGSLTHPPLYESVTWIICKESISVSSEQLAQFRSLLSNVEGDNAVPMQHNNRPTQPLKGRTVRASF
Conditions: not given

Compound	Ki [µM]
CC(C)Cc1ccc(C(C)C(=O)OCCOc2ccc3ccc(=O)oc3c2)cc1 (racemic)	> 10
CC(C)Cc1ccc(C(C)C(=O)OCCOc2ccc3oc(=O)ccc3c2)cc1 (racemic)	> 10

System: Rattus norvegicus
Assay: Antihyperalgesic activity in Sprague-Dawley rat model of Complete freund's adjuvant-induced arthritis assessed as increase in pain threshold of ipsilateral paw at 10 mg/kg, po starting from day 14 after CFA injection and measured at 0 to 60 mins by paw pressure test
Format: functional, organism-based
Conditions: not given

Compound	Activity
CC(C)Cc1ccc(C(C)C(=O)NCCOc2ccc3ccc(=O)oc3c2)cc1 (configuration not stated)	Active

System: Rattus norvegicus
Assay: Antihyperalgesic activity in Sprague-Dawley rat model of Complete freund's adjuvant-induced arthritis assessed as increase in pain threshold of ipsilateral paw at 30 mg/kg, po starting from day 14 after CFA injection and measured at 15 to 30 mins by paw pressure test
Format: functional, organism-based
Conditions: not given

Compound	Activity
CC(C(=O)O)c1cccc(C(=O)c2ccccc2)c1 (configuration not stated) [KETOPROFEN]	Active

Molecular target: Carbonic anhydrase 7 (Homo sapiens) (UniProt P43166)
Sequence (P43166 whole entry): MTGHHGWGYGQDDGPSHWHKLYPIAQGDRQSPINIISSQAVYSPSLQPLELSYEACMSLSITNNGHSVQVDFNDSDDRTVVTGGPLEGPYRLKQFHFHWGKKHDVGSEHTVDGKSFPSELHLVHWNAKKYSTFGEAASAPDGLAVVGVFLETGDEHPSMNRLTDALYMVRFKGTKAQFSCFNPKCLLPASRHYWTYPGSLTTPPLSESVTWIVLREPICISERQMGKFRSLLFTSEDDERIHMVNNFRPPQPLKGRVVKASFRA
Conditions: not given

Compound	Ki [µM]
CC(C)Cc1ccc(C(C)C(=O)OCCOc2ccc3ccc(=O)oc3c2)cc1 (racemic)	> 10
CC(C)Cc1ccc(C(C)C(=O)OCCOc2ccc3oc(=O)ccc3c2)cc1 (racemic)	> 10

System: not listed separately
Assay: Half life in human plasma by LC-MS/MS analysis
Format: ADME, cell-free
Conditions: not given

Compound	half-life [min]
CC(C)Cc1ccc(C(C)C(=O)NCCOc2ccc3ccc(=O)oc3c2)cc1 (configuration not stated)	> 240
COc1ccc2cc([C@H](C)C(=O)OCCOc3ccc4ccc(=O)oc4c3)ccc2c1	> 240
CC1=C(CC(=O)OCCOc2ccc3ccc(=O)oc3c2)c2cc(F)ccc2/C1=C\c1ccc([S+](C)[O-])cc1 (configuration not stated)	> 240
O=C(Cc1ccccc1Nc1c(Cl)cccc1Cl)OCCOc1ccc2ccc(=O)oc2c1	18
O=C(Cc1ccccc1Nc1c(Cl)cccc1Cl)OCCOc1ccc2oc(=O)ccc2c1	32
COc1ccc2c(c1)c(CC(=O)OCCOc1ccc3ccc(=O)oc3c1)c(C)n2C(=O)c1ccc(Cl)cc1	> 240
COc1ccc2c(c1)c(CC(=O)OCCOc1ccc3oc(=O)ccc3c1)c(C)n2C(=O)c1ccc(Cl)cc1	> 240
COc1ccc2cc([C@H](C)C(=O)OCCOc3ccc4oc(=O)ccc4c3)ccc2c1	> 240
CC1=C(CC(=O)OCCOc2ccc3oc(=O)ccc3c2)c2cc(F)ccc2/C1=C\c1ccc([S+](C)[O-])cc1 (configuration not stated)	> 240
CC(C)Cc1ccc(C(C)C(=O)OCCOc2ccc3ccc(=O)oc3c2)cc1 (racemic)	> 240
CC(C)Cc1ccc(C(C)C(=O)OCCOc2ccc3oc(=O)ccc3c2)cc1 (racemic)	> 240
CC(C(=O)OCCOc1ccc2ccc(=O)oc2c1)c1ccc(-c2ccccc2)c(F)c1 (racemic)	> 240
CC(C(=O)OCCOc1ccc2oc(=O)ccc2c1)c1ccc(-c2ccccc2)c(F)c1 (racemic)	> 240
